In patent US6750012B1, “Method of identifying a psychotropic agent using differential gene expression” (CuraGen Corporation, priority 1998, dated 2004):

How the values were obtained:
[1] = tested on: HALO1, novel gene fragment, 86 bp; assay: GENECALLING differential gene expression, striatum of haloperidol-treated rats; assay type: in vivo, rat
Description: (§1) Accordingly, the differentially expressed genes were identified by treating Wistar rats with haloperidol (0.041 mg/kg/d for 3 days via continuous infusion Alza pump), or rats treated with vehicle only for 3 days.
(§2) Rats were then sacrificed, their brains were removed, and total RNA was recovered from the microdissected striatum. cDNA was prepared and the resulting samples were processed through 140 subsequences of GENECALLING™ differential expression analysis as described in U.S. Pat. No. 5,871,697 and in Shimkets et al., Nature Biotechnology 17:198-803 (1999).
(§3) 101 gene fragments were initially found to be differentially expressed in rat striatum in response to haloperidol. The differential expression of 50 of the gene fragments was confirmed using a unlabeled oligonucleotide competition assay as described in Shimkets et al., Nature Biotechnology 17:198-803. 32 single copy nucleic acid sequences genes and 5 repetitive copy nucleic acid sequences differentially expressed in haloperidol and vehicle treated striatum were selected for further analysis elements.

[2] = tested on: HALO10, novel gene fragment, 89% similar to human rab5c-like protein [U11293]; assay: as above; assay type: in vivo, rat
Description: as §1, §2, §3

[3] = tested on: HALO11, novel gene fragment, 88% similar to human KIAA0383 gene [AB002381]; assay: as above; assay type: in vivo, rat
Description: as §1, §2, §3

[4] = tested on: HALO13, novel gene fragment, 80% similar to human suilisol [L26247]; assay: as above; assay type: in vivo, rat
Description: as §1, §2, §3

[5] = tested on: HALO16, novel gene fragment, 70% similar to E. coli putative ATP-dependent RNA helicase RHLB [P24229]; assay: as above; assay type: in vivo, rat
Description: as §1, §2, §3

[6] = tested on: HALO17, novel gene fragment, 65% similarity to 5′ region of human NOF1 [U39400]; assay: as above; assay type: in vivo, rat
Description: as §1, §2, §3

[7] = tested on: HALO18, novel gene fragment, encoded polypeptide 80% similar to human predicted protein DJ257A7.1 [AL008729]; assay: as above; assay type: in vivo, rat
Description: as §1, §2, §3

[8] = tested on: HALO19, Ribosomal protein L18a [X14181]; assay: as above; assay type: in vivo, rat
Description: as §1, §2, §3

[9] = tested on: HALO2, novel gene fragment, 121 bp; assay: as above; assay type: in vivo, rat
Description: as §1, §2, §3

[10] = tested on: HALO20, Inositol 1.4.5-triphosphate 3-kinase [M29787]; assay: as above; assay type: in vivo, rat
Description: as §1, §2, §3

[11] = tested on: HALO21, 2′-3′ cyclic nucleotide 3′ phosphodiesterase [CNPII] [L16532]; assay: as above; assay type: in vivo, rat
Description: as §1, §2, §3

HALO22, NGFI-B [U17254] = assay: as above; assay type: in vivo, rat
Description: as §1, §2, §3

[12] = tested on: HALO23, Neurogranin [L09119]; assay: as above; assay type: in vivo, rat
Description: as §1, §2, §3

HALO24, V-1 protein = assay: as above; assay type: in vivo, rat
Description: as §1, §2, §3

[13] = tested on: HALO25, 190 kDa ankyrin isoform; assay: as above; assay type: in vivo, rat
Description: as §1, §2, §3

HALO26, Cathepsin S = assay: as above; assay type: in vivo, rat
Description: as §1, §2, §3

[14] = tested on: HALO27, D-Amino acid oxidase; assay: as above; assay type: in vivo, rat
Description: as §1, §2, §3

[15] = tested on: HALO28, Stomach nonmuscle Ca^+2 ATPase [J04023]; assay: as above; assay type: in vivo, rat
Description: as §1, §2, §3

HALO33, NGF1-A = assay: as above; assay type: in vivo, rat
Description: as §1, §2, §3

HALO34, JunB [X54686] = assay: as above; assay type: in vivo, rat
Description: as §1, §2, §3

[16] = tested on: HALO35, Synaptophysin [p38]; assay: as above; assay type: in vivo, rat; conditions: present studies
Description: as §1, §2, §3

[17] = tested on: HALO6, novel gene fragment, 95% similarity to mouse quaking gene type 1 [U44940]; assay: as above; assay type: in vivo, rat
Description: as §1, §2, §3

[18] = tested on: HALO7, novel gene fragment, 86% similar to human U1 snRNP 70 kDa protein; assay: as above; assay type: in vivo, rat
Description: as §1, §2, §3

[19] = tested on: HALO8, novel gene fragment, 91% similar to mouse phosphatidylinositol 3 kinase 110 kDa subunit [U03279]; assay: as above; assay type: in vivo, rat
Description: as §1, §2, §3

[20] = tested on: HALO9, novel gene fragment, 98% similar to mouse meis2 [U57343]; assay: as above; assay type: in vivo, rat
Description: as §1, §2, §3

[21] = tested on: L1 retrotransposon ORF2 (HALO29 in Table 1, HALO32 in text); assay: as above; assay type: in vivo, rat
Description: as §1, §2, §3

[22] = tested on: L1 retrotransposon mIvi2-rn38 (HALO32 in Table 1, HALO31 in text); assay: as above; assay type: in vivo, rat
Description: as §1, §2, §3

[23] = tested on: Long interspersed repetitive DNA containing 7 ORFs (HALO31 in Table 1, HALO30 in text); assay: as above; assay type: in vivo, rat
Description: as §1, §2, §3

[24] = tested on: long interspersed repetitive DNA sequence LINE3 (HALO30 in Table 1, HALO29 in text); assay: as above; assay type: in vivo, rat
Description: as §1, §2, §3

[25] = tested on: HALO12, rat novel gene fragment, 83% homologous to mouse EGF repeat transmembrane protein; assay: as above; assay type: in vivo
Description: as §1, §2, §3

[26] = tested on: HALO14, novel gene fragment, 72% similar to rat repetitive ribosomal DNA II 3′ to 45S pre-rRNA [X02822]; assay: as above; assay type: in vivo
Description: as §1, §2, §3

[27] = tested on: HALO15, novel gene fragment, 97% similar to mouse gene fragment with 44% amino acid similarity to human sorting nexin-2; assay: as above; assay type: in vivo; conditions: Wistar rat striatum, 0.041 mg/kg/d for 3 days continuous infusion, vs vehicle
Description: as §1, §2, §3

[28] = tested on: HALO3, rat novel gene fragment, 495 bp; assay: as above; assay type: in vivo; conditions: Wistar rat striatum, 0.041 mg/kg/d for 3 days continuous infusion, vs vehicle
Description: as §1, §2, §3

[29] = tested on: HALO4, novel gene fragment, 649 bp; assay: as above; assay type: in vivo; conditions: Wistar rat striatum, 0.041 mg/kg/d for 3 days continuous infusion, vs vehicle
Description: as §1, §2, §3

[30] = tested on: HALO5, novel gene fragment, 539 bp; assay: as above; assay type: in vivo; conditions: Wistar rat striatum, 0.041 mg/kg/d for 3 days continuous infusion, vs vehicle
Description: as §1, §2, §3

rats = assay: Motor disturbances in rats treated for 28 days; assay type: in vivo, rat
Inisotaol monophsphates = conditions: 4-6 weeks following administration, decanoate dosing; cited from earlier work
sigma receptors = conditions: Seth et al, J Neurochem 70; cited from earlier work
[31] = Wistar rat striatum, 0.041 mg/kg/d for 3 days continuous infusion, vs vehicle
[32] = haloperidol-treated rats, striatum
[33] = haloperidol-treated rats, striatum, present studies

O=C(CCCN1CCC(O)(c2ccc(Cl)cc2)CC1)c1ccc(F)cc1 [haloperidol]
Haloperidol Effect on Transcript Level: HALO1 [1, 31]: −2.9
HALO1 expression decreased [1, 32]: 2.9 fold
Haloperidol Effect on Transcript Level: HALO10 [2, 31]: −2.0
HALO10 expression diminished [2, 32]: 2 fold
Haloperidol Effect on Transcript Level: HALO11 [3, 31]: −2.0
HALO11 expression increased [3, 32]: 4 fold
Haloperidol Effect on Transcript Level: HALO13 [4, 31]: +6.3
HALO13 expression increased [4, 32]: 6.3 fold
Haloperidol Effect on Transcript Level: HALO16 [5, 31]: −8
HALO16 expression diminished [5, 32]: 8 fold
Haloperidol Effect on Transcript Level: HALO17 [6, 31]: −10
HALO17 expression diminished [6, 32]: 10 fold
Haloperidol Effect on Transcript Level: HALO18 [7, 31]: −2.5
HALO18 expression diminished [7, 32]: 2.5 fold
Haloperidol Effect on Transcript Level: HALO19 Ribosomal protein L18a [8, 31]: +1.8
HALO19 (L18a) transcription increased [8, 32]: 1.8 fold
Haloperidol Effect on Transcript Level: HALO2 [9, 31]: −2
HALO2 expression decreased [9, 32]: 2 fold
Haloperidol Effect on Transcript Level: HALO20 Inositol 1.4.5-triphosphate 3-kinase [10, 31]: +2
HALO20 expression increased [10, 32]: 2 fold
Haloperidol Effect on Transcript Level: HALO21 CNPII [11, 31]: −3
HALO21 (CNPII) expression decreases [11, 32]: 3.0 folf
Haloperidol Effect on Transcript Level: HALO22 NGFI-B (HALO22, NGFI-B [U17254]; [31]): +2.4
NGFI-B expression increased (under heading HALO22) (HALO22, NGFI-B [U17254]; [32]): 2.4 fold
Haloperidol Effect on Transcript Level: HALO23 Neurogranin [12, 31]: +1.1
HALO23 (neurogranin) expression increased [12, 32]: 1.1 fold
Haloperidol Effect on Transcript Level: HALO24 V-1 protein (HALO24, V-1 protein; [31]): −2.0
HALO24 (V-1 protein) expression decreased (HALO24, V-1 protein; [32]): 2.0 fold
Haloperidol Effect on Transcript Level: HALO25 190 kDa ankyrin isoform [13, 31]: −2.0
HALO25 (190 kDA ankyrin isoform) expression decreased [13, 32]: 2.0 fold
Haloperidol Effect on Transcript Level: HALO26 Cathepsin S (HALO26, Cathepsin S; [31]): −1.7
HALO26 (cathepsin S) expression decreased (HALO26, Cathepsin S; [32]): 1.7 fold
Haloperidol Effect on Transcript Level: HALO27 D-Amino acid oxidase [14, 31]: −2.0
HALO27 (D-amino acid oxidase) expression decreased [14, 32]: 2.0 fold
Haloperidol Effect on Transcript Level: HALO28 Stomach nonmuscle Ca^+2 ATPase [15, 31]: +2
HALO28 (stomach nonmuscle Ca+2 ATPase) expression increased [15, 32]: 2 fold
Haloperidol Effect on Transcript Level: HALO33 NGF1-A (HALO33, NGF1-A; [31]): −3
HALO33 (NGF1-A) expression increased (HALO33, NGF1-A; [33]): 1.6 fold
Haloperidol Effect on Transcript Level: HALO34 JunB (HALO34, JunB [X54686]; [31]): +4
HALO34 (JunB) expression increased (HALO34, JunB [X54686]; [33]): 4 fold
HALO35 (synaptophysin) expression varied [16]: ~1 fold
Haloperidol Effect on Transcript Level: HALO6 [17, 31]: −2
HALO6 expression decreased [17, 32]: 2 fold
Haloperidol Effect on Transcript Level: HALO7 [18, 31]: −1.7
HALO7 expression diminished [18, 32]: 1.7 fold
Haloperidol Effect on Transcript Level: HALO8 [19, 31]: −2
HALO8 expression diminished [19, 32]: 2 fold
Haloperidol Effect on Transcript Level: HALO9 [20, 31]: +1.6
HALO9 expression increased [20, 32]: 1.6 fold
Haloperidol Effect on Transcript Level: HALO29 L1 retrotransposon ORF2 [21, 31]: −3.3
L1 retrotransposon ORF2 expression decreases (text: HALO32) [21, 32]: 3.3 fold
Haloperidol Effect on Transcript Level: HALO32 L1 retrotransposon mIvi2-rn38 [22, 31]: −5.5
L1 retrotransposon ml vi2-m38 expression decreases (text: HALO31) [22, 32]: 5.5 fold
Haloperidol Effect on Transcript Level: HALO31 Long interspersed repetitive DNA containing 7 ORFs [23, 31]: −3.5
long interspersed repetitive DNA containing 7 ORF expression decreases (text: HALO30) [23, 32]: 3.5 fold
Haloperidol Effect on Transcript Level: HALO30 LINE3 [24, 31]: −5
LINE3 expression decreases (text: HALO29) [24, 32]: 5 fold
Haloperidol Effect on Transcript Level: HALO12 [25, 31]: +3
HALO12 expression increased [25, 32]: 3 fold
Haloperidol Effect on Transcript Level: HALO14 [26, 31]: −5
HALO14 expression diminished [26, 32]: 5 fold
Haloperidol Effect on Transcript Level: HALO15 [27]: +1.0
Haloperidol Effect on Transcript Level: HALO3 [28]: −2.5
Haloperidol Effect on Transcript Level: HALO4 [29]: −3
Haloperidol Effect on Transcript Level: HALO5 [30]: −1.5
motor disturbances (rats): motor disturbances that parallel human pathology
Inositol monophosphates level (Inisotaol monophsphates): decrease
binding activity with sigma receptors (sigma receptors): binding activity
